Measured values: patent US20240132521A1, “COMPOUNDS AND METHODS FOR MODULATING HER2” (Iambic Therapeutics, Inc., priority 2022, published 2024)

Assays:
[1] = target: T1, ERBB2-A775_G776insYVMA (ERBB2YVMA) (Homo sapiens, UniProt P04626, INS775YVMA); experiment: HotSpot radiometric kinase activity assay, ERBB2YVMA; conditions: biochemical activity, 20 nM ERBB2YVMA, 10 μM 33P-ATP, 2 hours, read-out: HER2 - YVMA IC50
T1 construct: purchased SignalChem E27-13BG
Method: The purpose of the wtERBB2, ERBB2-A775_G776insYVMA (ERBB2YVMA), wtEGFR biochemical assay was to evaluate the inhibition (% inhibition and IC50 values) of the small molecule inhibitors by using the “HotSpot” radiometric kinase activity assay. HotSpot assays monitor the production of kinase substrate by the radioactive gamma phosphate of adenosine triphosphate (33P-ATP) during biochemical reactions. HotSpot assays was performed in steps upon completion of the kinase reaction: deposition of a reaction mixture aliquot onto P81 ion exchange paper, extensive washing of the aforementioned P81 paper using phosphoric acid to remove unbound radiolabeled 33P-ATP from the P81 paper, and finally visualization and quantification of the dried P81 paper utilizing a phosphoimager. […] Typical reaction solutions (10 μL, final reaction volume) contained the following buffer conditions: 20 mM Hepes (pH 7.5), 10 mM MgCl2, 1 mM EGTA, 0.01% Brij35, 0.02 mg/mL BSA, 0.1 mM Na3VO4, 2 mM DTT, 1% DMSO. The assay was primed by preparing a fresh 0.2 mg/mL solution of pEY (Sigma Cat: P7244) substrate in the reaction buffer and supplementing that solution with […] of MnCl2 as substrate cofactor (Sigma Cat: M9522). The kinase of interest was then added to the solution at the appropriate concentration (30 nM wtERBB2 from, or 20 nM ERBB2YVMA, or 4 nM wtEGFR) and gently mixed prior to delivery of compound in 100% DMSO by acoustic dispensing (Beckman Echo550). Compound, Kinase, and substrate were allowed to incubate for 20 min at room temperature prior to the initiation of the reaction by addition of 33P-ATP (PerkinElmer Cat: NEG602, final conc 10 μM). […] IC50 determinations were made from a plot of kinase activity as a function of inhibitor concentration fit to the 4-parameter IC50 equation with the enzyme concentration held constant using GraphPad Prism (San Diego).

BaF3_HER2WT cells = BaF3_HER2WT cells (Homo sapiens, UniProt P04626); experiment: Cell growth inhibition assay (CellTiterGlo), BaF3_HER2WT; format: cell-based; conditions: 3-day treatment, CellTiterGlo, read-out: Cell growth inhibition activity, HER2 WT
BaF3_HER2YVMA cells = BaF3_HER2YVMA cells (Homo sapiens, UniProt P04626, DUP772-775, cells depend on it); experiment: Cell growth inhibition assay (CellTiterGlo), BaF3_HER2YVMA; format: cell-based; conditions: 3-day treatment, CellTiterGlo, read-out: Cell growth inhibition activity, HER2 - YVMA
BaF3_EGFRWT cells = BaF3_EGFRWT cells (Homo sapiens, UniProt P00533); experiment: Cell growth inhibition assay (CellTiterGlo), BaF3_EGFRWT; format: cell-based; conditions: 3-day treatment, CellTiterGlo, read-out: Cell growth inhibition activity, EGFR WT
Sequence of BaF3_EGFRWT cells (P00533 whole entry, change not shown): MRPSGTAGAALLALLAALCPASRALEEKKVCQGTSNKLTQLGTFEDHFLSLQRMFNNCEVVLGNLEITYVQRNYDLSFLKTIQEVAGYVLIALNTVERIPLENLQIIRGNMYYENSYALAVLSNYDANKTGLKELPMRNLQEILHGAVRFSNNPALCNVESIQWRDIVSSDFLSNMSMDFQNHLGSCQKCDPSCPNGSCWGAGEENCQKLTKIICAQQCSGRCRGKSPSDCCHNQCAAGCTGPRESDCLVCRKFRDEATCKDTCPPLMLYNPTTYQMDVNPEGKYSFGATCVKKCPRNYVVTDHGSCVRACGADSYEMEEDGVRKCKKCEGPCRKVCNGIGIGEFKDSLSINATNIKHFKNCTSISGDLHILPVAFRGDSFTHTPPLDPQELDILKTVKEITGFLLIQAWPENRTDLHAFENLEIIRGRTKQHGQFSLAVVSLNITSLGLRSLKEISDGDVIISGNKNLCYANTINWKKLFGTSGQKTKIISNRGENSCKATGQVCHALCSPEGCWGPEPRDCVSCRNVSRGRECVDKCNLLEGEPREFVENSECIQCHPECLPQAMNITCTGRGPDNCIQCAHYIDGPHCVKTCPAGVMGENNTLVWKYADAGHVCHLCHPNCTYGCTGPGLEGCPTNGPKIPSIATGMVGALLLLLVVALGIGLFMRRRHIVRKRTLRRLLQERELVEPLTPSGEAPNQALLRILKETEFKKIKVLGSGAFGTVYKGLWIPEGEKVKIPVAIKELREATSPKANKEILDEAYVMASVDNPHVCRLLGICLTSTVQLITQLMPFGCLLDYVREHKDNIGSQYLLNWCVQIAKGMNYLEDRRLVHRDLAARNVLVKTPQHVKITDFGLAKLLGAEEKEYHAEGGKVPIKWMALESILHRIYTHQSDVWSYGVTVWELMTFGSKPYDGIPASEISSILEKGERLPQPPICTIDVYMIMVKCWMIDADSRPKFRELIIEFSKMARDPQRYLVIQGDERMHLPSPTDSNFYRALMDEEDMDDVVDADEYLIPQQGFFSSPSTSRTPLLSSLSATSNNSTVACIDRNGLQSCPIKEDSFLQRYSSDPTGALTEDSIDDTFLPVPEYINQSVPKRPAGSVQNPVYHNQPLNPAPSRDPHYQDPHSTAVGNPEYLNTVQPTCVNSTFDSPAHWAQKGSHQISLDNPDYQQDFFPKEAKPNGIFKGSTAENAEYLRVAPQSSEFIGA

Sequence of BaF3_HER2WT cells (P04626 whole entry, change not shown): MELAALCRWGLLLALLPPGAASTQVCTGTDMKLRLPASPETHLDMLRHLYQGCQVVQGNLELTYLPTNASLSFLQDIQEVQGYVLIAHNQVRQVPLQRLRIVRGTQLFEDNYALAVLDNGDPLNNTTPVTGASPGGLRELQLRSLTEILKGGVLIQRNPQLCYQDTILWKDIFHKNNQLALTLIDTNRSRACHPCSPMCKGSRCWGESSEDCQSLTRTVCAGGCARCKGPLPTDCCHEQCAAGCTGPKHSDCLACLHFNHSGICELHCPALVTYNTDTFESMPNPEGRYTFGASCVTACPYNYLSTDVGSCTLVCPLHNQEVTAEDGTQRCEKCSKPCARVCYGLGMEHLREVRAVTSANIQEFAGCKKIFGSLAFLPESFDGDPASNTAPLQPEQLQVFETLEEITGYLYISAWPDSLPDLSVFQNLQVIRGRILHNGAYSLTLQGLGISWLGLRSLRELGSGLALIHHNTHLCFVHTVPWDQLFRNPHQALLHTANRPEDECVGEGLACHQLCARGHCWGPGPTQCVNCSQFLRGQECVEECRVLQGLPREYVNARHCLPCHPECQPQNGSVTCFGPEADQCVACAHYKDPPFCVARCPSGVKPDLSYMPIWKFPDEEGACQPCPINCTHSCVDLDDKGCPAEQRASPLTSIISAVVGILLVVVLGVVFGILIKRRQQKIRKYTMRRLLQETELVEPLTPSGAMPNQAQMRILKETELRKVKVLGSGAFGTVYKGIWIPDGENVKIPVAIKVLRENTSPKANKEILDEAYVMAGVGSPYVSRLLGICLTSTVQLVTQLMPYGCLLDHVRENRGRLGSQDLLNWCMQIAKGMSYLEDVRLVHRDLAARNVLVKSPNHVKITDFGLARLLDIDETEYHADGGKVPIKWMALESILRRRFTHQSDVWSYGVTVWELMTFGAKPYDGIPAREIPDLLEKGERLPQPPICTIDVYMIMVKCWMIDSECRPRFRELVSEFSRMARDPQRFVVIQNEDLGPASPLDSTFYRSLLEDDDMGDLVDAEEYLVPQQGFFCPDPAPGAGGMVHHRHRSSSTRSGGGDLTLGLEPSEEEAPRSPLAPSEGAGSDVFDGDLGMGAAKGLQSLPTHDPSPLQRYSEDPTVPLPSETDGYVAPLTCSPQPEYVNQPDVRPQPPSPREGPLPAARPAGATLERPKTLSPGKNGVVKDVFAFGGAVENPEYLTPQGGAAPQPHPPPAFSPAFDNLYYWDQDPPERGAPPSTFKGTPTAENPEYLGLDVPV
T1 sequence (P04626 with tags, fused parts or gaps INS775YVMA limits assumed): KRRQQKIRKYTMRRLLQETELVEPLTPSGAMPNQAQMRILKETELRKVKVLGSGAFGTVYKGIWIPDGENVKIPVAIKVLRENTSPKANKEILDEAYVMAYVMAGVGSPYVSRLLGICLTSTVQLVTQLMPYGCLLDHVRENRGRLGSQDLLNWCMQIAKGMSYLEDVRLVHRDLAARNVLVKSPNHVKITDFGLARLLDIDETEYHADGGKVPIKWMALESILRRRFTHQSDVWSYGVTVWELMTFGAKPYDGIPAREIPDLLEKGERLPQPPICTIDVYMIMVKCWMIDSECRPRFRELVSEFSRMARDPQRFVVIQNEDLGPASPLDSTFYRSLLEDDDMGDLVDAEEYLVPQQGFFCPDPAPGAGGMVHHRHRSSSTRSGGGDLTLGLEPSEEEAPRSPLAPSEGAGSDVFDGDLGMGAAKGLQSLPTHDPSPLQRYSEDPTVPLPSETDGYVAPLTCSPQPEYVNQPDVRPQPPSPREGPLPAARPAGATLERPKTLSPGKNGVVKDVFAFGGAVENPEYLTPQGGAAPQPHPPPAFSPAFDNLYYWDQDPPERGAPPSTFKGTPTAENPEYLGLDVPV
Sequence of BaF3_HER2YVMA cells (P04626 with tags, fused parts or gaps DUP772-775): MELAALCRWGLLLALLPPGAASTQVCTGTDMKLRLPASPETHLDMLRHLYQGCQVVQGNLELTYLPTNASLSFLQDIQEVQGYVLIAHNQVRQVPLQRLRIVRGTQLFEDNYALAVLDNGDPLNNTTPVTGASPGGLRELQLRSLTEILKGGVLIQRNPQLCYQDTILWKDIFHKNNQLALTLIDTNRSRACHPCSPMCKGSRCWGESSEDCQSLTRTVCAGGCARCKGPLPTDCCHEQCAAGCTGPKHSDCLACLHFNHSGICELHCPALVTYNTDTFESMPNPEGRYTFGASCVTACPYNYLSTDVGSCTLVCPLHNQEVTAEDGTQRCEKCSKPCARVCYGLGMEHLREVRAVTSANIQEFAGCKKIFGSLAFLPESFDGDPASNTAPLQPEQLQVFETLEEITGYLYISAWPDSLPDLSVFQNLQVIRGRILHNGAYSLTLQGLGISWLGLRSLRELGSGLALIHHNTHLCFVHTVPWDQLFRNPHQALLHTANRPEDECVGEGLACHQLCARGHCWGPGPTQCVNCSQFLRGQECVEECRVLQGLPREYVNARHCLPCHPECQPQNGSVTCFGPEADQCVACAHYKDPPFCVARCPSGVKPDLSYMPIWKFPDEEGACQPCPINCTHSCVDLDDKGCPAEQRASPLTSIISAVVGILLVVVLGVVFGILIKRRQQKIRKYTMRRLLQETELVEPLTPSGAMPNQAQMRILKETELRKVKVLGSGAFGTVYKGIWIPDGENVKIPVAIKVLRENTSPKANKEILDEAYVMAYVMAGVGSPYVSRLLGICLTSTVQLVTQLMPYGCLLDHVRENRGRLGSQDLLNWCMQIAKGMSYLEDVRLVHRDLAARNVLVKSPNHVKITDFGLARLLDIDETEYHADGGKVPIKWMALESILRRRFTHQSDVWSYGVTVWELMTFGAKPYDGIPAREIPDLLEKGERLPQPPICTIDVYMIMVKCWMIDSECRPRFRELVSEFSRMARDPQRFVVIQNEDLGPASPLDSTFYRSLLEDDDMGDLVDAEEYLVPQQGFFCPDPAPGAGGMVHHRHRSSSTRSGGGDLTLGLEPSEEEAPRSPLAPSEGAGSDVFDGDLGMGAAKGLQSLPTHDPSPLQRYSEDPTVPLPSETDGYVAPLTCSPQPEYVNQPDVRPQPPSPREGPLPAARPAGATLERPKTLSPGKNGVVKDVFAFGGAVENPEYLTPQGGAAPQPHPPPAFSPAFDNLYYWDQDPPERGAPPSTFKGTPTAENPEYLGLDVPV

IC50 [1]	GI50 (BaF3_HER2WT cells)	GI50 (BaF3_HER2YVMA cells)	GI50 (BaF3_EGFRWT cells)	Structure (SMILES)
< 200 nM	< 200 nM	< 200 nM	1500 to 5000 nM	Cc1cc(Nc2ncnn3ccc(C4CN(C(=O)/C=C/CN(C)C)C4)c23)ccc1Oc1ccn2ncnc2c1 [Example 1, (E)-1-(3-(4-((4-([1,2,4]triazolo[1,5-a]pyridin-7-yloxy)-3-methylphenyl)amino)pyrrolo[2,1-f][1,2,4]triazin-5-yl)azetidin-1-yl)-4-(dimethylamino)but-2-en-1-one]
< 200 nM	< 200 nM	< 200 nM	1500 to 5000 nM	C=CC(=O)N1CC(n2cc(-c3ccn4ncnc(Nc5ccc(Oc6ccn7ncnc7c6)c(C)c5)c34)cn2)C1 [Example 2, 1-(3-(4-(4-((4-([1,2,4]triazolo[1,5-a]pyridin-7-yloxy)-3-methylphenyl)amino)pyrrolo[2,1-f][1,2,4]triazin-5-yl)-1H-pyrazol-1-yl)azetidin-1-yl)prop-2-en-1-one]
< 200 nM	< 200 nM	< 200 nM	500 to 1500 nM	C=CC(=O)N1CCN(c2ccn3ncnc(Nc4ccc(Oc5ccn6ncnc6c5)c(C)c4)c23)CC1 [Example 6, 1-(4-(4-((4-([1,2,4]triazolo[1,5-a]pyridin-7-yloxy)-3-methylphenyl)amino)pyrrolo[2,1-f][1,2,4]triazin-5-yl)piperazin-1-yl)prop-2-en-1-one]
< 200 nM	< 200 nM	< 200 nM	200 to 500 nM	C=CC(=O)N1CCC(c2ccn3ncnc(Nc4ccc(Oc5ccn6ncnc6c5)c(C)c4)c23)CC1 [Example 7, 1-(4-(4-((4-([1,2,4]triazolo[1,5-a]pyridin-7-yloxy)-3-methylphenyl)amino)pyrrolo[2,1-f][1,2,4]triazin-5-yl)piperidin-1-yl)prop-2-en-1-one]
< 200 nM	< 200 nM	< 200 nM	500 to 1500 nM	C=CC(=O)N1CCCN(c2ccn3ncnc(Nc4ccc(Oc5ccn6ncnc6c5)c(C)c4)c23)CC1 [Example 8, 1-(4-(4-((4-([1,2,4]triazolo[1,5-a]pyridin-7-yloxy)-3-methylphenyl)amino)pyrrolo[2,1-f][1,2,4]triazin-5-yl)-1,4-diazepan-1-yl)prop-2-en-1-one]
< 200 nM	200 to 500 nM	500 to 1500 nM	1500 to 5000 nM	C=CC(=O)N1CC(c2ccn(-c3ccn4ncnc(Nc5ccc(Oc6ccn7ncnc7c6)c(C)c5)c34)n2)C1 [Example 10, 1-(3-(1-(4-((4-([1,2,4]triazolo[1,5-a]pyridin-7-yloxy)-3-methylphenyl)amino)pyrrolo[2,1-f][1,2,4]triazin-5-yl)-1H-pyrazol-3-yl)azetidin-1-yl)prop-2-en-1-one]
< 200 nM	< 200 nM	< 200 nM	1500 to 5000 nM	C=CC(=O)N1CCCC(c2ccn3ncnc(Nc4ccc(Oc5ccn6ncnc6c5)c(C)c4)c23)C1 (stereo not drawn) [Example 12, 1-(3-(4-((4-([1,2,4]triazolo[1,5-a]pyridin-7-yloxy)-3-methylphenyl)amino)pyrrolo[2,1-f][1,2,4]triazin-5-yl)piperidin-1-yl)prop-2-en-1-one]
< 200 nM	< 200 nM	< 200 nM	1500 to 5000 nM	Cc1cc(Nc2ncnn3ccc(C4CN(C(=O)/C=C/CN5CCCCC5)C4)c23)ccc1Oc1ccn2ncnc2c1 [Example 94, (E)-1-(3-(4-((4-([1,2,4]triazolo[1,5-a]pyridin-7-yloxy)-3-methylphenyl)amino)pyrrolo[2,1-f][1,2,4]triazin-5-yl)azetidin-1-yl)-4-(piperidin-1-yl)but-2-en-1-one]
< 200 nM	< 200 nM	200 to 500 nM	1500 to 5000 nM	Cc1cc(Nc2ncnn3ccc(C4CCN(C(=O)/C=C/CN(C)C)C4)c23)ccc1Oc1ccn2ncnc2c1 (stereo not drawn) [Example 98, (E)-1-(3-(4-((4-([1,2,4]triazolo[1,5-a]pyridin-7-yloxy)-3-methylphenyl)amino)-pyrrolo-[2,1-f][1,2,4]triazin-5-yl)pyrrolidin-1-yl)-4-(dimethylamino)but-2-en-1-one]
< 200 nM	< 200 nM	< 200 nM	1500 to 5000 nM	Cc1cc(Nc2ncnn3ccc(C4CN(C(=O)/C=C/CN(C)C)C4)c23)ccc1Oc1ccc2c(c1)ncn2C [Example 101, (E)-4-(dimethylamino)-1-(3-(4-((3-methyl-4-((1-methyl-1H-benzo[d]imidazol-5-yl)oxy)phenyl)amino)pyrrolo[2,1-f][1,2,4]triazin-5-yl)azetidin-1-yl)but-2-en-1-one]
< 200 nM	< 200 nM	< 200 nM	500 to 1500 nM	C=CC(=O)N1CCC(c2ccn3ncnc(Nc4ccc(Oc5ccc6c(c5)ncn6C)c(C)c4)c23)CC1 [Example 113, 1-(4-(4-((3-methyl-4-((1-methyl-1H-benzo[d]imidazol-5-yl)oxy)phenyl)amino)pyrrolo[2,1-f][1,2,4]triazin-5-yl)piperidin-1-yl)prop-2-en-1-one]
	< 200 nM	< 200 nM	1500 to 5000 nM	CO[C@H]1CN(C/C=C/C(=O)N2CCC(c3ccn4ncnc(Nc5ccc(Oc6ccn7ncnc7c6)c(C)c5)c34)CC2)C[C@H]1OC [Example 169, (E)-1-(4-(4-((4-([1,2,4]triazolo[1,5-a]pyridin-7-yloxy)-3-methylphenyl)amino)pyrrolo[2,1-f][1,2,4]triazin-5-yl)piperidin-1-yl)-4-((3R,4S)-3,4-dimethoxypyrrolidin-1-yl)but-2-en-1-one]
	< 200 nM	< 200 nM	1500 to 5000 nM	CO[C@@H]1CN(C/C=C/C(=O)N2CCC(c3ccn4ncnc(Nc5ccc(Oc6ccn7ncnc7c6)c(C)c5)c34)CC2)C[C@H]1OC [Example 170, (E)-1-(4-(4-((4-([1,2,4]triazolo[1,5-a]pyridin-7-yloxy)-3-methylphenyl)amino)pyrrolo[2,1-f][1,2,4]triazin-5-yl)piperidin-1-yl)-4-((3R,4R)-3,4-dimethoxypyrrolidin-1-yl)but-2-en-1-one]
	1500 to 5000 nM	1500 to 5000 nM	1500 to 5000 nM	Cc1cc(Nc2ncnn3ccc(C4(F)CCN(C(=O)/C=C/CN(C)C)CC4)c23)ccc1Oc1ccn2ncnc2c1 [Example 175, (E)-1-(4-(4-((4-([1,2,4]triazolo[1,5-a]pyridin-7-yloxy)-3-methylphenyl)amino)pyrrolo[2,1-f][1,2,4]triazin-5-yl)-4-fluoropiperidin-1-yl)-4-(dimethylamino)but-2-en-1-one]
	< 200 nM	< 200 nM	1500 to 5000 nM	Cc1cc(Nc2ncnn3ccc(C4CCN(C(=O)/C=C/CN(C)C)CC4(F)F)c23)ccc1Oc1ccn2ncnc2c1 (stereo not drawn) [Example 176, (E)-1-(4-(4-((4-([1,2,4]triazolo[1,5-a]pyridin-7-yloxy)-3-methylphenyl)amino)pyrrolo[2,1-f][1,2,4]triazin-5-yl)-3,3-difluoropiperidin-1-yl)-4-(dimethylamino)but-2-en-1-one]
	< 200 nM	< 200 nM	1500 to 5000 nM	CNC/C=C/C(=O)N1CCC(c2ccn3ncnc(Nc4ccc(Oc5ccn6ncnc6c5)c(C)c4)c23)CC1 [Example 177, (E)-1-(4-(4-((4-([1,2,4]triazolo[1,5-a]pyridin-7-yloxy)-3-methylphenyl)amino)pyrrolo[2,1-f][1,2,4]triazin-5-yl)piperidin-1-yl)-4-(methylamino)but-2-en-1-one]
	1500 to 5000 nM	> 5000 nM	> 5000 nM	Cc1cc(Nc2ncnn3ccc(C(=O)NCCCN(C)C)c23)ccc1N [Example 181, 4-((4-amino-3-methylphenyl)amino)-N-(3-(dimethylamino)propyl)pyrrolo[2,1-f][1,2,4]triazine-5-carboxamide]

Structure (SMILES)	IC50 [1]	GI50 (BaF3_HER2WT cells)	GI50 (BaF3_HER2YVMA cells)	GI50 (BaF3_EGFRWT cells)
Cc1cc(Nc2ncnn3ccc(C4CN(C(=O)/C=C/CN5CCCC5)C4)c23)ccc1Oc1ccn2ncnc2c1 [Example 97, (E)-1-(3-(4-((4-([1,2,4]triazolo[1,5-a]pyridin-7-yloxy)-3-methylphenyl)amino)pyrrolo[2,1-f][1,2,4]triazin-5-yl)azetidin-1-yl)-4-(pyrrolidin-1-yl)but-2-en-1-one]	< 200 nM	< 200 nM	< 200 nM	1500 to 5000 nM
